# According to patent US20250275958A1, “GPCR REGULATOR AND USE THEREOF” (BEIJING CHANGPING LABORATORY, priority 2022, published 2025):
# Where two headings read alike, the source gives them in different places.
# Legend:
# GPR132 = molecular target: T1, GPR132 (Homo sapiens, UniProt Q9UNW8); experiment: G protein activation (Gi BRET probes, GPR132 co-transfected in HEK293 cells); assay type: cell-based; settings: stimulated 2 minutes, read-out: GPR132 EC50 (GPR132 agonist activity)
# T1 construct: expressed in transfected cells; host or cells: HEK293 cells (transient co-transfection)
# T1 sequence (Q9UNW8 1-380): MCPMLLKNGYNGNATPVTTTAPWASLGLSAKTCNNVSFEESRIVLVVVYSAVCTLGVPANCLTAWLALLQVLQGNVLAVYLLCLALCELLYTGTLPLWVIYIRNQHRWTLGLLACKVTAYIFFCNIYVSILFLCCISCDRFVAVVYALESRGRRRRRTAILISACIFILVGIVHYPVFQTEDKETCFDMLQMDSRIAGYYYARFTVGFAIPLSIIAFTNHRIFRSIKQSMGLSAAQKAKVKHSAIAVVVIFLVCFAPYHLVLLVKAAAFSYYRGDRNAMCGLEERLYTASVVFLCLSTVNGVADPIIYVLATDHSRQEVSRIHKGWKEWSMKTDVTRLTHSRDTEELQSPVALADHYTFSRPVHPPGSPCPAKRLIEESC
# Procedure: Gi BRET probes were generated according to previous literature (Olsen et al., 2020), and included Gαi-RLuc8, Gβ3, and Gγ9-GFP2. GPR132 and Gi BRET probes were transiently co-transfected in HEK293 cells. 24 hours after transfection, the cells were distributed into 96-well microplates at a density of 5×10^4 cells per well and cultured for another 24 hours. The cells were washed twice with Tyrode buffer and stimulated with compound ligands at different concentrations (10^−12 to 10^−5 M) for 2 minutes. After adding coelenterazine, the substrate of luciferase, 400a (5 μM), BRET signal was measured using a Mithras LB940 microplate reader equipped with a BRET filter set. The BRET signal was calculated as the emission light ratio at 510 nm/400 nm.
# The compounds with lower EC50 values in the above experiments had good GPR132 agonist activity.
# TNF-α = experiment: Determination of level of tumor necrosis factor (TNF-α) as cell inflammatory marker, ELISA, LPS-treated HepG2 cells; assay type: cell-based; settings: Homo sapiens, 48 h of drug administration, read-out: EC50 (activity in reducing TNF-α)
# Procedure: HepG2 cells were inoculated in 96-well plates at a density of 30%. After incubation for 18 h to allow the cells to adhere to wall, the original culture medium was removed, and each well of the drug group was added with LPS culture medium (LPS concentration was […]), the control group was added with an equal amount of DMSO, and incubation was performed overnight. […] Three replicate wells were set for each compound. After 48 h of drug administration, the cell supernatant was collected with a sterile tube, and centrifuged for about 20 minutes (2000 to 3000 rpm). The supernatant was carefully collected. The TNF-α level was then determined using ELISA method. The specific steps were as follows: • Standard sample addition: Standard sample wells and sample wells were set, and 50 μL of standard sample at different concentrations was added to each standard sample well. • Sample addition: Blank wells (blank control wells was not added with sample and ELISA reagent, and the rest operations were the same) and test sample wells were set. First, 40 μL of sample diluent was added to each test sample well on an ELISA plate, and then 10 μL of the sample to be tested (the final dilution ratio of sample was 5) was added. The sample was added to the bottom of the well of the ELISA plate, not touching the well wall as much as possible, and then the gentle shaking was carried out for mixing. • Enzyme addition: 100 μL of ELISA reagent was added to each well, except for the blank wells. • Incubation: The plate was sealed with a sealing film and incubated at 37° C. for 60 minutes. • Solution preparation: 20-Fold concentrated washing solution was diluted by 20-fold with distilled water for later use. • Washing: The sealing film was carefully peeled off, the liquid was discarded, the plate was spin-dried; each well was filled with the washing solution, allowed to stand for 30 seconds and then the washing solution was discarded. This operation was repeated 5 times, and pat-drying was performed. • Color development: First, 50 μL of color developer A was added to each well, then 50 μL of color developer B was added, gently shaken and mixed, and color development was performed at 37° C. in the dark for 15 minutes. • Termination: 50 μL of termination liquid was added to each well to stop the reaction (the blue color immediately turned yellow). • Determination: Zero was set with the blank well, and the absorbance (OD value) at 450 nm of each well was measured in sequence. The determination should be performed within 15 minutes after adding the termination liquid.
# TNF-α content in the sample to be tested could be calculated by drawing a standard curve based on the standard samples. TNF-α reduction rate was further calculated. The formula for calculating TNF-α reduction was Reduction rate (%)=TNF-α contentcontrol−TNF-α contentto be tested/TNF-α contentcontrol×100.
# In the above experiment, the compounds with higher TNF-α reduction rate and lower EC50 value could better reduce the level of inflammation.
SMILES,EC50 (GPR132) [µM],EC50 (GPR132; class symbols) [µM],EC50 (TNF-α) [µM],EC50 (TNF-α; class symbols) [µM]
"Cc1c(C(=O)O)oc2ccc(NC(=O)/C=C/c3cccc(I)c3)cc12 [Example 18, (E)-5-(3-(3-IODOPHENYL)ACRYLAMIDO)-3-METHYLBENZOFURAN-2-CARBOXYLIC ACID]",0.51,,1,
Cc1c(C(=O)O)oc2ccc(NC(=O)CCC(=O)c3ccccc3)cc12 [Example 20],,0.01 to 1,,0.01 to 10
"Cc1c(C(=O)O)oc2ccc(NC(=O)CCCCc3ccccc3)cc12 [Example 21, 3-METHYL-5-(5-PHENYLVALERAMIDO)BENZOFURAN-2-CARBOXYLIC ACID]",,1 to 10,,0.01 to 10
"Cc1c(C(=O)O)oc2ccc(S(=O)(=O)N(CCc3ccccc3)Cc3ccc(C(=O)OC(C)(C)C)cc3)cc12 [Example 25, 3-METHYL-5-(N-(4-(TERT-BUTYLOXYCARBONYL)BENZYL)-N-PHENYLETHYLSULFAMOYL) BENZOFURAN-2-CARBOXYLIC ACID]",,0.01 to 1,,0.01 to 10
"Cc1c(C(=O)O)oc2ccc(S(=O)(=O)N(CCc3ccccc3)Cc3cccc4cccnc34)cc12 [Example 26, 3-METHYL-5-(N-(QUINOLIN-8-YLMETHYL)-N-PHENYLETHYLSULFAMOYL)BENZOFURAN-2-CARBOXYLIC ACID]",,1 to 10,,10 to 50
"Cc1c(C(=O)O)oc2ccc(S(=O)(=O)N(CCc3ccccc3)c3ccccc3)cc12 [Example 27, 3-METHYL-5-(N-PHENETHYL-N-PHENYLSULFAMOYL)BENZOFURAN-2-CARBOXYLIC ACID]",,1 to 10,,10 to 50
"Cc1c(C(=O)O)oc2ccc(S(=O)(=O)N(CCc3ccccc3)c3ccc(N4CCN(S(C)(=O)=O)CC4)cc3)cc12 [Example 29, 3-METHYL-5-(N-(4-(4-(METHYLSULFONYL)PIPERAZIN-1-YL)PHENYL)-N-PHENYLETHYLSULFAMOYL)BENZOFURAN-2-CARBOXYLIC ACID]",,1 to 10,,10 to 50
"Cc1c(C(=O)O)oc2ccc(S(=O)(=O)N(CCc3ccccc3)c3ccc(Oc4ccccc4)cc3)cc12 [Example 30, 3-METHYL-5-(N-(4-PHENOXYPHENYL)-N-PHENYLETHYLSULFAMOYL)BENZOFURAN-2-CARBOXYLIC ACID]",,0.01 to 1,,10 to 50

# The next lines start with results.
EC50 (GPR132) [µM],EC50 (GPR132; class symbols) [µM],SMILES,EC50 (TNF-α) [µM],EC50 (TNF-α; class symbols) [µM]
6.5,,Cc1c(C(=O)O)oc2ccc(NC(=O)CCc3ccccc3)cc12 [Example 16],10.2,
,0.01 to 1,Cc1c(C(=O)O)oc2ccc(NC(=O)/C=C/c3ccccc3)cc12 [Example 17],,0.01 to 10
,1 to 10,"Cc1c(C(=O)O)oc2ccc(NC(=O)[C@H]3C[C@H]3c3ccccc3)cc12 [Example 19, 3-METHYL-5-((1S,2R)-2-PHENYLCYCLOPROPANE-1-CARBOXAMIDO) BENZOFURAN-2-CARBOXYLIC ACID]",,10 to 50
,0.01 to 1,"Cc1c(C(=O)O)oc2ccc(OCCCc3ccccc3)cc12 [Example 22, 3-METHYL-5-(3-PHENYLPROPOXY)BENZOFURAN-2-CARBOXYLIC ACID]",,0.01 to 10
3.8,,"Cc1c(C(=O)O)oc2ccc(S(=O)(=O)N(CCc3ccccc3)Cc3ccccc3)cc12 [Example 23, 3-METHYL-5-(N-BENZYL-N-PHENYLETHYLSULFAMOYL)BENZOFURAN-2-CARBOXYLIC ACID]",5.9,
0.3,,"Cc1c(C(=O)O)oc2ccc(S(=O)(=O)N(CCc3ccccc3)Cc3ccc(Br)cc3)cc12 [Example 24, 3-METHYL-5-(N-(4-BROMOBENZYL)-N-PHENYLETHYLSULFAMOYL)BENZOFURAN-2-CARBOXYLIC ACID]",0.7,
2.1,,"Cc1c(C(=O)O)oc2ccc(S(=O)(=O)N(CCc3ccccc3)CCc3ccccc3)cc12 [Example 28, 3-Methyl-5-(N,N-diphenylethylsulfamoyl)benzofuran-2-carboxylic acid]",3.1,
